One compound from ChEMBL document CHEMBL1667778, “Naphthalene/quinoline amides and sulfonylureas as potent and selective antagonists of the EP4 receptor” (Bioorg Med Chem Lett, 2011) can be followed below.

SMILES strings stand for the structures.

Data set [1] in a line: Elimination half life in Sprague-Dawley rat at 5 mg/kg, iv and 20 mg/kg, po. The class given is ADME, organism-based. The conditions noted are these: in vivo.
Data set [2] is described as follows: Elimination half life in Beagle dog at 1 mg/kg, iv and 4 mg/kg, po. It is filed as ADME, organism-based, Canis lupus familiaris. Conditions: in vivo.
Data set [3] is described as follows: Clearance in Beagle dog at 1 mg/kg, iv and 4 mg/kg, po. The class given is ADME, organism-based, Canis lupus familiaris. The conditions noted are these: in vivo.
Data set [4] relates to Hepatocyte. Kind of data set: Metabolic stability in rat hepatocytes. It is filed as ADME, cell-based.
Data set [5] is described as follows: Bioavailability in Beagle dog at 1 mg/kg, iv and 4 mg/kg, po. The class given is ADME, organism-based, Canis lupus familiaris. The conditions noted are these: in vivo.
Data set [6] concerns Hepatocyte. Kind of data set: Metabolic stability in human hepatocytes. The class given is ADME, cell-based.
Data set [7] can be described thus: Metabolic stability in rat liver microsome. The conditions noted are these: microsomes. It is filed as ADME. For orientation: Liver microsomes are a subcellular fraction often used to study metabolism.
Data set [8] is described as follows: Metabolic stability in human liver microsome. The conditions noted are these: microsomes. It is filed as ADME.
A short description of data set [9]: AUC (0 to 24 hrs) in Sprague-Dawley rat at 20 mg/kg, po. The conditions noted are these: plasma. It is filed as ADME, organism-based. Set-up: time < 24 hr, dose 20 mg/kg, route oral.
Another data set relates to Liver. Kind of data set: Drug level in Sprague-Dawley rat liver at 150 uCi/kg, po after 24 hrs. The class given is ADME, organism-based. The conditions noted are these: in vivo.
A short description of data set [10]: AUC (0 to 24 hrs) in Beagle dog at 4 mg/kg, po. It is filed as ADME, organism-based, Canis lupus familiaris. Set-up: time < 24 hr, dose 4 mg/kg, route oral. The conditions noted are these: plasma.
A further data set relates to Plasma. Kind of data set: Drug level in Sprague-Dawley rat plasma at 150 uCi/kg, po after 24 hrs. The class given is ADME, organism-based. Conditions: in vivo.
The nature of data set [11]: Clearance in Sprague-Dawley rat at 5 mg/kg, iv and 20 mg/kg, po. It is filed as ADME, organism-based. Conditions: in vivo.
Data set [12] is described as follows: Bioavailability in Sprague-Dawley rat at 5 mg/kg, iv and 20 mg/kg, po. It is filed as ADME, organism-based. Conditions: in vivo.

One may read the half-life as the time needed for the level to fall by half in the phase considered. A low value points to rapid decline. For orientation: bioavailability means the share of a dose that reaches the circulation, judged against a reference dose that is usually intravenous. A higher bioavailability goes with much systemic uptake. What is called AUC(0-t) is the area under the concentration-time curve up to a stated or last time point. A lower AUC(0-t) goes with less exposure.

Consider `CCOc1c2c(c(OCC)c3ccccc13)C(=O)N(c1ccc(CC3(NC(=O)NS(=O)(=O)c4c(Cl)cccc4Cl)CC3)cc1C)C2`, for which the half-life is 6.6 h in data set [1] and 4.3 h in [2]. The values for the clearance in [3] and in data set [11] were 0.072 L/h/kg and 0.66 L/h/kg, respectively. Also, the Stability in the data set on Hepatocyte [4] is 91%; with Hepatocyte [6], 96%; in data set [7], 97%; in data set [8] it was 90%. Further, the values for the bioavailability in data set [5] and in data set [12] were 100% and 84%, respectively. The figures for the AUC(0-t) at 24 h in data set [9] and in data set [10] were 37.4 µM·h and 101 µM·h, respectively. In addition, the Drug uptake in the data set on Liver and in the data set on Plasma was less than 10 pmol/mg each time.
